{"source": "patent US9237988B2", "about": "“Benzalkonium chloride compositions for inhibiting the hydrolytic activity of endogenous matrix metalloproteinases in dental restorations” (Bisco, Inc., priority 2010, dated 2016)", "biological_target": "MMP-9 enzymes (Homo sapiens, UniProt P14780)", "sequence (P14780 94-707)": "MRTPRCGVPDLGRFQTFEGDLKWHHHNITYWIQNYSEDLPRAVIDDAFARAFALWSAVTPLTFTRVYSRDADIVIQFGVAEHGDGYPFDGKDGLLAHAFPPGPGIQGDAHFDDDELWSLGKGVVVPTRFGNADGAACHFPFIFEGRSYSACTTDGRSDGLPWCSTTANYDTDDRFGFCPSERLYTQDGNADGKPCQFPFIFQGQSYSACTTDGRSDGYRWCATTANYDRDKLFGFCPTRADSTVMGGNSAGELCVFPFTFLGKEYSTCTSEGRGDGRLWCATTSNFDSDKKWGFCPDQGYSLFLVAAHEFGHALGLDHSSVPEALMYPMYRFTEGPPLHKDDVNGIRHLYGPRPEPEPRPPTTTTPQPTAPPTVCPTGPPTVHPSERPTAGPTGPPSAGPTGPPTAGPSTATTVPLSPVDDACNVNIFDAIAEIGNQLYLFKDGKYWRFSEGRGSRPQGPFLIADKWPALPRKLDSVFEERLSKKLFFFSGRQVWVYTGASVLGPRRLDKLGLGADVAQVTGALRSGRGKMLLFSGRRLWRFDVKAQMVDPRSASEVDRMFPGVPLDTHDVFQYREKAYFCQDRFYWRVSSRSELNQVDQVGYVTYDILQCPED", "assay": "MMP inhibition after incubation with MMP-9 enzymes, Anaspec SensoLyte Generic MMP Assay Kit", "format": "biochemical", "details": "for Percent MMP Inhibition at 1 Hour / Percent MMP Inhibition at 4 Hours: aqueous solution; for Percent MMP Inhibition at 1 Hour: 1 hour incubation; for Percent MMP Inhibition at 4 Hours: 4 hours incubation", "experimental": "According to another presently expected one exemplary embodiment of the present application, multiple benzalkonium chloride dental solutions were prepared in aqueous solutions in concentrations varying from 0.02% to 2%, and were incubated with MMP-9 enzymes for 4 hours. After both 1 and 4 hours of incubation, standard negative and positive controls were compared to the below concentrations of the test compositions using an Anaspec SensoLyte Generic MMP Assay Kit (#72095, Anaspec, Fremont, Calif., USA), with the resulting MMP inhibitions shown in Tables 1 and 2 below.", "key": {"[1]": {"details": "0.5% BAC by weight, listed as benzalkonium chloride"}}}
{"substance": "benzalkonium chloride [BAC]", "values": [{"measurement": "Percent MMP Inhibition at 1 Hour", "setting": "0.02% BAC by weight", "result": 0, "unit": "%"}, {"measurement": "Percent MMP Inhibition at 4 Hours", "setting": "0.02% BAC by weight", "result": 3, "unit": "%"}, {"measurement": "Percent MMP Inhibition at 1 Hour", "setting": "0.05% BAC by weight", "result": 0, "unit": "%"}, {"measurement": "Percent MMP Inhibition at 4 Hours", "setting": "0.05% BAC by weight", "result": 6, "unit": "%"}, {"measurement": "Percent MMP Inhibition at 1 Hour", "setting": "0.5% BAC by weight", "result": 96.5, "unit": "%"}, {"measurement": "Percent MMP Inhibition at 1 Hour", "setting": "[1]", "result": 96, "unit": "%"}, {"measurement": "Percent MMP Inhibition at 4 Hours", "setting": "0.5% BAC by weight", "result": 85, "unit": "%"}, {"measurement": "Percent MMP Inhibition at 4 Hours", "setting": "[1]", "result": "at least 85%"}, {"measurement": "Percent MMP Inhibition at 1 Hour", "setting": "1.0% BAC by weight", "result": 98.3, "unit": "%"}, {"measurement": "Percent MMP Inhibition at 4 Hours", "setting": "1.0% BAC by weight", "result": 95, "unit": "%"}, {"measurement": "Percent MMP Inhibition at 1 Hour", "setting": "2.0% BAC by weight", "result": 100, "unit": "%"}, {"measurement": "Percent MMP Inhibition at 4 Hours", "setting": "2.0% BAC by weight", "result": 100, "unit": "%"}, {"measurement": "MMP inhibition", "setting": "concentration as low as 0.02% by weight, time not stated", "result": "displayed MMP inhibition"}]}
